Counter-ions that a name gives are not always drawn.
System: recurrent/metastatic breast cancer
Assay: Inventor's previous clinical research, monotherapy of recurrent/metastatic breast cancer, liposome versus ordinary injection
Type: in vivo, human
Details: control group, 14 mg/m^2 every 4 weeks
Method: The inventor's previous clinical research included mitoxantrone hydrochloride monotherapy in the treatment of recurrent/metastatic breast cancer. There were 30 cases in the experimental group and the control group respectively. […] The control group was given mitoxantrone hydrochloride injection in 14 mg/m^2, every 4 weeks as a cycle.

O=C1c2c(O)ccc(O)c2C(=O)c2c(NCCNCCO)ccc(NCCNCCO)c21 [mitoxantrone hydrochloride injection, mitoxantrone hydrochloride]
ORR (2/30): 6.7%
DCR (9/30): 30%
PR (30 cases): 2 cases

From US20240122875A1, “USE OF MITOXANTRONE HYDROCHLORIDE LIPOSOME” (CSPC ZHONGQI PHARMACEUTICAL TECHNOLOGY (SHIJIAZHUANG) CO., …, priority 2021, published 2024)
